Experimental data as given in patent US9012492B2, “Apocynin-lipoic acid conjugates and uses thereof” (priority 2011, dated 2015).
Where two headings read alike, the source gives them in different places. Blank lines part the entries; values can stand above or below the compound they belong to.

Legend:
[1] = tested on: markers of oxidative stress (SOD1, SOD2, GSH, GSSG, H2O2, HNE-His adducts, DNA fragmentation); conditions: administered 30 min prior to I/R; same model, previously demonstrated; cited from earlier work
[2] = tested on: dog liver microsomes (DLM); test: Metabolic stability using dog liver microsomes; assay type: in vitro ADME
Description: (§1) Table 9 summarizes the experimental conditions used in the studies of the metabolic stability of the compound of Formula (Ia) using dog liver microsomes and human liver microsomes.

Sprague-Dawley rats = conditions: previous studies, cited from earlier work
rat liver microsomes = test: Metabolic stability using rat liver microsomes; assay type: in vitro ADME; design: half-life: dose or concentration left out as unconfirmed
Description: (§2) Table 7 summarizes the experimental conditions used in the studies of the metabolic stability of the compound of Formula (Ia) using rat liver microsomes. Table 8 and FIG. 13 show the results from the studies of the metabolic stability of the compound of Formula (Ia) using rat liver microsomes. [table]

[3] = tested on: human liver microsomes (HLM); test: Metabolic stability using human liver microsomes; assay type: in vitro ADME
Description: as §1

[4] = Stability in sodium phosphate buffer (HPLC); assay type: physicochemical; conditions: for Half life: buffer; for half-life: buffer without microsomes and without NADPH
Description: The stability of the compound of Formula (Ia) in a sodium phosphate buffer (50 mM, pH 7.4) was evaluated using HPLC. […] Area counts of apocynin and lipoid acid were found in 0 minute samples and were generally constant until the last time point measured (see: FIGS. 11-12 and Tables 5-6).

[5] = Metabolic stability using dog liver microsomes; assay type: in vitro ADME; conditions: dog, dog liver microsomes, pH 7.4; DLM control (without NADPH)
Description: as §1

[6] = Metabolic stability using rat liver microsomes; assay type: in vitro ADME; design: half-life: dose or concentration left out as unconfirmed; conditions: rat, rat liver microsomes, pH 7.4
Description: as §2

N27 neuronal cells = test: DNA fragmentation ELISA after hydrogen peroxide exposure of N27 neuronal cells; assay type: cell-based; conditions: for DNA cell fragmentation: n = 4
Description: Specifically, the effects of (Ia) on oxidative stress in N27 neuronal cells, a dopaminergic cell line were studied. […]
The cells were then lysed, and DNA fragmentation was determined by ELISA assay.

[7] = Metabolic stability using human liver microsomes; assay type: in vitro ADME; conditions: human
Description: as §1

[8] = matrix buffer (no microsomes, no NADPH), DLM/HLM study
[9] = matrix buffer (no microsomes, no NADPH), rat liver microsome study

- Half life ([2]; dog, microsomes): >30 min
- CLintr (mL/min/g liver) (rat liver microsomes; rat, microsomes): <0.6 mL/min/g liver
- Half life (rat liver microsomes; rat, microsomes): >30 min
- % Metabolism in 30 minutes [3]: 0%
- CLintr (mL/min/g liver) ([3]; human, microsomes): <0.6 mL/min/g liver
- Half life ([3]; human, microsomes): >30 min
- CLintr (mL/min/g liver) [4]: 0.9 mL/min/g liver
- Half life [4]: >30 min
- % Metabolism in 30 minutes [4, 8]: 0%
- % Metabolism in 30 minutes [4, 9]: 0%
- CLintr (mL/min/g liver) ([4]; rat): <0.6 mL/min/g liver
- Half life ([4]; rat): >30 min
Compound: 1,2-dithiolane-2-pentanoic acid [lipoic acid]
- SOD2 activity [1]: increased SOD2 activity
- neuroprotection when administered just prior to the beginning of reperfusion (Sprague-Dawley rats; 5 mg/kg): did not result in significant neuroprotection
- most effective dose (Sprague-Dawley rats; I/R model): 5 mg/kg

- half-life at 0.5 µM [5]: > 30 min
- % Metabolism in 30 minutes ([2]; DLM control (without NADPH)): 0%
- CLintr (mL/min/g liver) ([2]; DLM control (without NADPH)): <0.6 mL/min/g liver
- % Metabolism in 30 minutes ([2]; DLM reaction (with NADPH)): 30%
- CLintr (mL/min/g liver) ([2]; DLM reaction (with NADPH)): 1.6 mL/min/g liver
- Half life ([2]; DLM reaction (with NADPH)): >30 min
- % Metabolism in 30 minutes (rat liver microsomes; RLM, control (without NADPH)): 2%
- CLintr (mL/min/g liver) (rat liver microsomes; RLM, control (without NADPH)): <0.6 mL/min/g liver
- % Metabolism in 30 minutes (rat liver microsomes; RLM, reaction (with NADPH)): 0%
- CLintr (mL/min/g liver) (rat liver microsomes; RLM, reaction (with NADPH)): <0.6 mL/min/g liver
- Half life (rat liver microsomes; RLM, reaction (with NADPH)): >30 min
- half-life at 0.5 µM ([6]; RLM, control (without NADPH)): > 30 min
- % Metabolism in 30 minutes ([3]; HLM control (without NADPH)): 0%
- CLintr (mL/min/g liver) ([3]; HLM control (without NADPH)): <0.6 mL/min/g liver
- % Metabolism in 30 minutes ([3]; HLM reaction (with NADPH)): 0%
- CLintr (mL/min/g liver) ([3]; HLM reaction (with NADPH)): <0.6 mL/min/g liver
- Half life ([3]; HLM reaction (with NADPH)): >30 min
- half-life ([7]; human liver microsomes, HLM control (without NADPH)): > 30 min
- half-life [4, 8]: > 30 min
- half-life [4, 9]: > 30 min
- % Metabolism in 30 minutes [4, 8]: 1%
- CLintr (mL/min/g liver) [4, 8]: <0.6 mL/min/g liver
- % Metabolism in 30 minutes [4, 9]: 0%
- CLintr (mL/min/g liver) [4, 9]: <0.6 mL/min/g liver
Compound: COc1cc(C(C)=O)ccc1O [Apocynin, 4-hydroxy-3-methoxyacetophenone]
- SOD2 activity [1]: ineffective
- DNA fragmentation induced by hydrogen peroxide reduced by (N27 neuronal cells; pretreatment 100 μM): 41%
- DNA cell fragmentation (N27 neuronal cells; pretreatment 100 μM, then hydrogen peroxide (1 mM)): 244 ± 32 percentage of control

Compound: c1ccc2c(c1)[I+]c1ccccc1-2 [DPI, diphenyleneiodonium]
- DNA fragmentation induced by hydrogen peroxide reduced by (N27 neuronal cells; pretreatment 10 μM): 48%
- DNA cell fragmentation (N27 neuronal cells; pretreatment 10 μM, then hydrogen peroxide (1 mM)): 208 ± 38 percentage of control

Compound: OO [Hydrogen Peroxide, hydrogen peroxide]
- DNA cell fragmentation (N27 neuronal cells; hydrogen peroxide alone (6 hr)): 428 ± 52 percentage of control

Compound: O=C(O)Cc1ccccc1Nc1c(Cl)cccc1Cl [diclofenac]
- % Metabolism in 30 minutes (rat liver microsomes; matrix RLM (positive control)): 84%
- CLintr (mL/min/g liver) (rat liver microsomes; matrix RLM (positive control)): 6.4 mL/min/g liver
- half-life ([6]; matrix RLM (positive control)): 11 min
- % Metabolism in 30 minutes ([3]; matrix HLM (positive control)): 92%
- CLintr (mL/min/g liver) ([3]; matrix HLM (positive control)): 8.4 mL/min/g liver
- half-life ([7]; microsomes, matrix HLM (positive control)): 9 min
